The record followed here is the NIST ThermoML archive (doi:10.1016/j.jct.2019.01.006).

For the data set the following is noted: for vapor or sublimation pressure: Transpiration method; for mass density: 101.33 kPa, Liquid, Vibrating tube method.

Numbers after ± are expanded uncertainties.

With `Cc1c(Cl)cccc1Nc1ncccc1C(=O)O` [2-(2-methyl-3-chloroanilino)nicotinic acid], the “vapor or sublimation pressure” value worked out at 0.000753 ± 0.00012 kPa (419.15 K, Crystal); 0.000867 ± 0.00013 kPa (421.15 K, Crystal); 0.000966 ± 0.00013 kPa (423.15 K, Crystal); 0.001118 ± 0.00013 kPa (425.15 K, Crystal); 0.001294 ± 0.00013 kPa (427.15 K, Crystal); 0.001475 ± 0.00013 kPa (429.15 K, Crystal). Further, the “vapor or sublimation pressure” value came out at 0.001694 ± 0.00014 kPa (431.15 K, Crystal); 0.001933 ± 0.00014 kPa (433.15 K, Crystal); 0.002207 ± 0.00015 kPa (435.15 K, Crystal); 0.002483 ± 0.00016 kPa (437.15 K, Crystal); 0.002882 ± 0.00017 kPa (439.15 K, Crystal); 0.003179 ± 0.00018 kPa (441.15 K, Crystal). For the same molecule, the “vapor or sublimation pressure” value (443.15 K, Crystal) was determined as 0.003735 ± 0.0002 kPa. The Normal melting temperature (Crystal, DTA) came to 232.60 ± 0.5 °C.

For the molecule `CCCCCC` [hexane], the mass density was 659.4 ± 4.1 kg/m3 (293.15 K); 654.8 ± 4.1 kg/m3 (298.15 K); 650.2 ± 4.1 kg/m3 (303.15 K); 645.4 ± 4.1 kg/m3 (308.15 K); 640.7 ± 4.1 kg/m3 (313.15 K).

In the case of `CCCCCCCCO` [octan-1-ol], the mass density is recorded as 825.1 ± 4 kg/m3 (293.15 K); 821.7 ± 4 kg/m3 (298.15 K); 818.3 ± 4 kg/m3 (303.15 K); 814.8 ± 4 kg/m3 (308.15 K); 811.4 ± 4 kg/m3 (313.15 K).
